Data: patent US20050261162A1, “Pharmaceutical composition for preventing and treating cancer and treating an inflammation” (priority 2001, published 2005)
“And” between values parts separate entries of the source, which are not always exact repeats. Equal values may be shown once.

Legend:
[1] = test system: Salmonella typhimurium TA102 strain; assay: Antimutagenic effect on mutagenesis induced by reactive oxygen species (His+ revertant colonies); type: cell-based; details: compared with curcumin as positive control
Protocol: The antimutagenic effect of xanthorrhizol was examined in Salmonella typhimurium TA102 strain including mutagenesis with reactive oxygen species (Levin, D. E., et al., Proc. Natl. Acad. Sci. U. S. A., 79;7445-7449, 1982).
Salmonella typhimurium TA102 strain was cultured in Oxoid nutrient broth medium for 11 hours. 100 μl of above-cultured medium was added to 600 μl of the reaction mixture containing tert-butylhydroperoxide (100 μg/plate) or hydrogen peroxide (50 μg/plate) with or without xanthorrhizol and incubated for 30 minutes at 37° C. Curcumin was added instead of xanthorrhizol in positive control. The concentration of xanthorrhizol or curcumin was 0, 10, 20, 40, 60 nmol/plate and 2, 4, 8, 10, 20, 50 nmol/plate respectively in experiment to examine the inhibitory effect of xanthorrhizol against tert-butylhydroperoxide and hydrogen peroxide-induced mutagenesis. The reaction mixture was transferred to 2 ml of top agar solution containing 0.5 mM of histidine and biotin and was homogeneously mixed. It was poured to minimal glucose plate. The plates were incubated for 48 hours at 37° C. and the number of His+ revertant colonies counted.

COX-2 = target: T1, COX-2 (Mus musculus, UniProt Q05769); assay: Inhibition of LPS-induced COX-2 activity (PGE2 production) in RAW264.7 macrophage cells; type: cell-based; details: LPS 1 μg/ml, 16 hr
T1 construct: endogenous in cells; host or cells: RAW264.7 macrophage cells, LPS-stimulated
T1 sequence (Q05769 18-604): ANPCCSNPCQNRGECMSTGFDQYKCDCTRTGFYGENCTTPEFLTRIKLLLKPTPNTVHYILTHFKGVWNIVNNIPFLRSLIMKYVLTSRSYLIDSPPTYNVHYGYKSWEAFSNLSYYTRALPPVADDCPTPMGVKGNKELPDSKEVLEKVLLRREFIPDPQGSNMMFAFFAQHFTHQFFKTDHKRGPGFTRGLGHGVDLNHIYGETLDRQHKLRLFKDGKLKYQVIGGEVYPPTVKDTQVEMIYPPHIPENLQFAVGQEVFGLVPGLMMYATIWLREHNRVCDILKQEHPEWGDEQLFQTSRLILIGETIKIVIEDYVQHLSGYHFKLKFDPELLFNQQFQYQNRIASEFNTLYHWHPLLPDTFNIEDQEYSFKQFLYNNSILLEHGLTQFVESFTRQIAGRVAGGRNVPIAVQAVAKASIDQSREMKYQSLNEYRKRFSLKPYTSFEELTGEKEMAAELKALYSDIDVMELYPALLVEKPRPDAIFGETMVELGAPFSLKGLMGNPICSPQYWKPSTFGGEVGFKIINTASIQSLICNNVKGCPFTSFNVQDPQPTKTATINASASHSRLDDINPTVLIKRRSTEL
Protocol: If a cell was treated with LPS, the activity of COX-2 increases. On the basis of this fact, to investigate the effect of xanthorrhizol on LPS-induced COX-2 activity, the quantity of PGE2 released from cells was measured as follows.
RAW264.7 macrophage cells were maintained in DMEM supplemented with penicillin-streptomycin and 10% FBS at 37° C., in 5% CO2 of humidified air. The cells (10×10^5 cells/ml, 200 μl) were allowed to adhere for 4 hr in the presence of aspirin (500 μM) in a 96-well culture plate to inhibit irreversibly COX activity in cells, washed 3 times with media, and then incubated in the fresh medium with 1 μg/ml of LPS. Xanthorrhizol was simultaneously added to each well. After an additional 16 hr incubation, the media were recovered and analyzed by PGE2 enzyme immunometric assay. The medium recovered from each well was added to each well attached anti-PGE2 antibody (Amersham Life Science, Arlington Heights, Ill.) with PGE2-acetylcholineesterase tracer, incubated for 18 hr at room temperature and then washed five times with 0.05% Tween 20-phosphate buffer solution. […] Absorbance at 405 nm was measured. PGE2 in each medium treated with xanthorrhizol was quantified in calibration curve graphed with standard PGE2. […] The percentage inhibition was expressed as [1-(PGE2 level of sample/PGE2 level of vehicle treated−control)]×100.

HL-60 cells = assay: Flow cytometric cell cycle analysis of HL-60 cells (sub-G1 phase); type: cell-based, Human; details: 24 hours, control 20%
Protocol: The effect of xanthorrhizol on cell cycle was examined by flow cytometric analysis. HL-60 cells were cultured in serum-free RPMI 1640 medium for 48 hr to stop cell cycle at GO phase. The medium was exchanged to 10% FBS-RPMI 1640 media with 0, 20, 60 μM of xanthorrhizol, respectively. 24 hours later, the cells obtained after centrifugation were fixed in 70% ethanol at −20° C. overnight. The cells were washed twice again with PBS, and incubated with 100 U/ml of Rnase at 37° C. for 1 hr. The cell pellet was resuspended in propidium iodide solution after washing twice with PBS. The cells were analyzed by flow cytometry and the result was represented at FIG. 11.

CC(C)=CCC[C@@H](C)c1ccc(C)c(O)c1 [xanthorrhizol]
inhibitory effect against mutagenesis induced by hydrogen peroxide ([1]; hydrogen peroxide 50 μg/plate): more excellent inhibitory effect
inhibitory effect against mutagenesis induced by tert-butylhydroperoxide ([1]; tert-butylhydroperoxide 100 μg/plate): more excellent inhibitory effect
IC50 (COX-2): 321 nM and 320 nM
percentage inhibition of LPS-induced PGE2 production (COX-2 activity) (COX-2; concentration of not less than 1 μg/ml): not less than 98%
proportion of cells in sub-G1 phase (apoptosis peak) (HL-60 cells; 20 μM): 36%
proportion of cells in sub-G1 phase (apoptosis peak) (HL-60 cells; 60 μM): 76%
